Data published in patent EP0908457B1, “3-(1,2-benzisothiazol- and isoxazol-5-Y1)-2,4(1H,3H)-pyrimidinedione or thione and 3-(1,2-benzisothiazol- and isoxazol-5-y1)-4(3H)-pyrimidinone or thione herbicidal agents” (BASF AKTIENGESELLSCHAFT, priority 1997, dated 1999).

Key:
[1] = test system: Echinochloa oryzoides (Ard.) Fritsch.; assay: Preemergence weed control under flooded paddy conditions, ECHORC (Watergrass (Calif.)); format: in vivo; conditions: preemergence weeds, flooded paddy, rated three to four weeks after treatment; note: meaning of each grade not given here
Cyperus iria [2] = assay: Preemergence weed control under flooded paddy conditions, CYPIR (Rice Flatsedge); format: in vivo; conditions: preemergence weeds, flooded paddy, rated three to four weeks after treatment; note: meaning of each grade not given here
[3] = test system: Cyperus serotinus, Rottb.; assay: Preemergence weed control under flooded paddy conditions, CYPSE (Flatsedge); format: in vivo; conditions: preemergence weeds, rated three to four weeks after treatment; note: meaning of each grade not given here
[4] = test system: Monochoria vaginalis, Presl.; assay: Preemergence weed control under flooded paddy conditions, MOOVA (Monochoria); format: in vivo; conditions: preemergence weeds, flooded paddy, rated three to four weeks after treatment; note: meaning of each grade not given here
Sagittaria pygmaea, L. [5] = assay: Preemergence weed control under flooded paddy conditions, SAGPY (Arrowhead (Pygmaea)); format: in vivo; conditions: preemergence weeds, flooded paddy, rated three to four weeks after treatment; note: meaning of each grade not given here
[6] = test system: Echinochloa oryzoides (Ard.) Fritsch.; assay: Postemergence weed control under flooded paddy conditions, ECHORC (Watergrass (Calif.)); format: in vivo; conditions: rated three to four weeks after treatment
Cyperus iria [7] = assay: Postemergence weed control under flooded paddy conditions, CYPIR (Rice Flatsedge); format: in vivo; conditions: rated three to four weeks after treatment
[8] = test system: Cyperus serotinus, Rottb.; assay: Postemergence weed control under flooded paddy conditions, CYPSE (Flatsedge); format: in vivo; conditions: rated three to four weeks after treatment
[9] = test system: Monochoria vaginalis, Presl.; assay: Postemergence weed control under flooded paddy conditions, MOOVA (Monochoria); format: in vivo; conditions: rated three to four weeks after treatment
Sagittaria pygmaea, L. [10] = assay: Postemergence weed control under flooded paddy conditions, SAGPY (Arrowhead (Pygmaea)); format: in vivo; conditions: rated three to four weeks after treatment
[11] = test system: Oryza sativa, (L.) Tebonnet; assay: Rice tolerance to post-transplant applications under flooded paddy conditions (Example 187), ORYSAT (Rice, Tebonnet); conditions: rated three to four weeks after treatment; note: meaning of each grade not given here
[12] = test system: Oryza sativa, (L.) Tebonnet; assay: Rice tolerance to post-transplant applications under flooded paddy conditions (Example 188), ORYSAT (Rice, Tebonnet); conditions: rated three to four weeks after treatment

CCOc1cccc(-c2nsc3ccc(-n4c(=O)cc(C(F)(F)F)n(C)c4=O)cc23)c1 [Example 327, 2,4(1H,3H)-Pyrimidinedione, 3-[3-(m-ethoxyphenyl)-1,2-benzisothiazol-5-yl]-1-methyl-6-(trifluoromethyl)-]
herbicidal effect rating, ECHORC ([1]; Rate 0.0320 kg/ha): 9.0 | herbicidal effect rating, ECHORC ([1]; Rate 0.0620 kg/ha): 9.0 | herbicidal effect rating, ECHORC ([1]; Rate 0.1250 kg/ha): 9.0 | herbicidal effect rating, ECHORC ([1]; Rate 0.2500 kg/ha): 9.0 | herbicidal effect rating, CYPIR (Cyperus iria [2]; Rate 0.0320 kg/ha): 9.0 | herbicidal effect rating, CYPIR (Cyperus iria [2]; Rate 0.0620 kg/ha): 9.0 | herbicidal effect rating, CYPIR (Cyperus iria [2]; Rate 0.1250 kg/ha): 9.0 | herbicidal effect rating, CYPIR (Cyperus iria [2]; Rate 0.2500 kg/ha): 9.0 | herbicidal effect rating, CYPSE ([3]; Rate 0.0320 kg/ha): 1.0 | herbicidal effect rating, CYPSE ([3]; Rate 0.0620 kg/ha): 5.5 | herbicidal effect rating, CYPSE ([3]; Rate 0.1250 kg/ha): 5.5 | herbicidal effect rating, CYPSE ([3]; Rate 0.2500 kg/ha): 9.0 | herbicidal effect rating, MOOVA ([4]; Rate 0.0320 kg/ha): 9.0 | herbicidal effect rating, MOOVA ([4]; Rate 0.0620 kg/ha): 9.0 | herbicidal effect rating, MOOVA ([4]; Rate 0.1250 kg/ha): 9.0 | herbicidal effect rating, MOOVA ([4]; Rate 0.2500 kg/ha): 9.0 | herbicidal effect rating, SAGPY (Sagittaria pygmaea, L. [5]; Rate 0.0320 kg/ha): 3.0 | herbicidal effect rating, SAGPY (Sagittaria pygmaea, L. [5]; Rate 0.0620 kg/ha): 5.5 | herbicidal effect rating, SAGPY (Sagittaria pygmaea, L. [5]; Rate 0.1250 kg/ha): 5.5 | herbicidal effect rating, SAGPY (Sagittaria pygmaea, L. [5]; Rate 0.2500 kg/ha): 7.5 | herbicidal effect rating, ECHORC ([6]; Rate 0.0320 kg/ha): 9.0 | herbicidal effect rating, ECHORC ([6]; Rate 0.0620 kg/ha): 7.0 | herbicidal effect rating, ECHORC ([6]; Rate 0.1250 kg/ha): 9.0 | herbicidal effect rating, ECHORC ([6]; Rate 0.2500 kg/ha): 9.0 | herbicidal effect rating, CYPIR (Cyperus iria [7]; Rate 0.0320 kg/ha): 9.0 | herbicidal effect rating, CYPIR (Cyperus iria [7]; Rate 0.0620 kg/ha): 9.0 | herbicidal effect rating, CYPIR (Cyperus iria [7]; Rate 0.1250 kg/ha): 9.0 | herbicidal effect rating, CYPIR (Cyperus iria [7]; Rate 0.2500 kg/ha): 9.0 | herbicidal effect rating, CYPSE ([8]; Rate 0.0320 kg/ha): 0.0 | herbicidal effect rating, CYPSE ([8]; Rate 0.0620 kg/ha): 0.0 | herbicidal effect rating, CYPSE ([8]; Rate 0.1250 kg/ha): 0.0 | herbicidal effect rating, CYPSE ([8]; Rate 0.2500 kg/ha): 2.0 | herbicidal effect rating, MOOVA ([9]; Rate 0.0320 kg/ha): 9.0 | herbicidal effect rating, MOOVA ([9]; Rate 0.0620 kg/ha): 9.0 | herbicidal effect rating, MOOVA ([9]; Rate 0.1250 kg/ha): 9.0 | herbicidal effect rating, MOOVA ([9]; Rate 0.2500 kg/ha): 9.0 | herbicidal effect rating, SAGPY (Sagittaria pygmaea, L. [10]; Rate 0.0320 kg/ha): 0.0 | herbicidal effect rating, SAGPY (Sagittaria pygmaea, L. [10]; Rate 0.0620 kg/ha): 0.0 | herbicidal effect rating, SAGPY (Sagittaria pygmaea, L. [10]; Rate 0.1250 kg/ha): 4.0 | herbicidal effect rating, SAGPY (Sagittaria pygmaea, L. [10]; Rate 0.2500 kg/ha): 4.0 | herbicidal effect rating ORYSAT ([11]; Rate 0.0320 kg/ha): 3.0 | herbicidal effect rating ORYSAT ([11]; Rate 0.0620 kg/ha): 2.5 | herbicidal effect rating ORYSAT ([11]; Rate 0.1250 kg/ha): 3.5 | herbicidal effect rating ORYSAT ([11]; Rate 0.2500 kg/ha): 4.0 | herbicidal effect rating, ORYSAT (rice tolerance) ([12]; Rate 0.0320 kg/ha): 2.0 | herbicidal effect rating, ORYSAT (rice tolerance) ([12]; Rate 0.0620 kg/ha): 3.0 | herbicidal effect rating, ORYSAT (rice tolerance) ([12]; Rate 0.1250 kg/ha): 5.0 | herbicidal effect rating, ORYSAT (rice tolerance) ([12]; Rate 0.2500 kg/ha): 4.0

CC(C)Oc1cccc(-c2nsc3ccc(-n4c(=O)cc(C(F)(F)F)n(C)c4=O)cc23)c1 [Example 328, 2,4(1H,3H)-Pyrimidinedione, 3-[3-(m-isopropoxyphenyl)-1,2-benzisothiazol-5-yl]-1-methyl-6-(trifluoromethyl)-]
herbicidal effect rating, ECHORC ([1]; Rate 0.0320 kg/ha): 9.0 | herbicidal effect rating, ECHORC ([1]; Rate 0.0620 kg/ha): 9.0 | herbicidal effect rating, ECHORC ([1]; Rate 0.1250 kg/ha): 9.0 | herbicidal effect rating, ECHORC ([1]; Rate 0.2500 kg/ha): 9.0 | herbicidal effect rating, CYPIR (Cyperus iria [2]; Rate 0.0320 kg/ha): 9.0 | herbicidal effect rating, CYPIR (Cyperus iria [2]; Rate 0.0620 kg/ha): 9.0 | herbicidal effect rating, CYPIR (Cyperus iria [2]; Rate 0.1250 kg/ha): 9.0 | herbicidal effect rating, CYPIR (Cyperus iria [2]; Rate 0.2500 kg/ha): 9.0 | herbicidal effect rating, CYPSE ([3]; Rate 0.0320 kg/ha): 6.0 | herbicidal effect rating, CYPSE ([3]; Rate 0.0620 kg/ha): 6.0 | herbicidal effect rating, CYPSE ([3]; Rate 0.1250 kg/ha): 7.5 | herbicidal effect rating, CYPSE ([3]; Rate 0.2500 kg/ha): 9.0 | herbicidal effect rating, MOOVA ([4]; Rate 0.0320 kg/ha): 9.0 | herbicidal effect rating, MOOVA ([4]; Rate 0.0620 kg/ha): 9.0 | herbicidal effect rating, MOOVA ([4]; Rate 0.1250 kg/ha): 9.0 | herbicidal effect rating, MOOVA ([4]; Rate 0.2500 kg/ha): 9.0 | herbicidal effect rating, SAGPY (Sagittaria pygmaea, L. [5]; Rate 0.0320 kg/ha): 2.5 | herbicidal effect rating, SAGPY (Sagittaria pygmaea, L. [5]; Rate 0.0620 kg/ha): 3.0 | herbicidal effect rating, SAGPY (Sagittaria pygmaea, L. [5]; Rate 0.1250 kg/ha): 4.5 | herbicidal effect rating, SAGPY (Sagittaria pygmaea, L. [5]; Rate 0.2500 kg/ha): 4.5 | herbicidal effect rating, ECHORC ([6]; Rate 0.0320 kg/ha): 7.0 | herbicidal effect rating, ECHORC ([6]; Rate 0.0620 kg/ha): 9.0 | herbicidal effect rating, ECHORC ([6]; Rate 0.1250 kg/ha): 9.0 | herbicidal effect rating, ECHORC ([6]; Rate 0.2500 kg/ha): 9.0 | herbicidal effect rating, CYPIR (Cyperus iria [7]; Rate 0.0320 kg/ha): 9.0 | herbicidal effect rating, CYPIR (Cyperus iria [7]; Rate 0.0620 kg/ha): 9.0 | herbicidal effect rating, CYPIR (Cyperus iria [7]; Rate 0.1250 kg/ha): 9.0 | herbicidal effect rating, CYPIR (Cyperus iria [7]; Rate 0.2500 kg/ha): 9.0 | herbicidal effect rating, CYPSE ([8]; Rate 0.0320 kg/ha): 0.0 | herbicidal effect rating, CYPSE ([8]; Rate 0.0620 kg/ha): 2.0 | herbicidal effect rating, CYPSE ([8]; Rate 0.1250 kg/ha): 6.0 | herbicidal effect rating, CYPSE ([8]; Rate 0.2500 kg/ha): 6.0 | herbicidal effect rating, MOOVA ([9]; Rate 0.0320 kg/ha): 9.0 | herbicidal effect rating, MOOVA ([9]; Rate 0.0620 kg/ha): 9.0 | herbicidal effect rating, MOOVA ([9]; Rate 0.1250 kg/ha): 9.0 | herbicidal effect rating, MOOVA ([9]; Rate 0.2500 kg/ha): 9.0 | herbicidal effect rating, SAGPY (Sagittaria pygmaea, L. [10]; Rate 0.0320 kg/ha): 0.0 | herbicidal effect rating, SAGPY (Sagittaria pygmaea, L. [10]; Rate 0.0620 kg/ha): 0.0 | herbicidal effect rating, SAGPY (Sagittaria pygmaea, L. [10]; Rate 0.1250 kg/ha): 2.0 | herbicidal effect rating, SAGPY (Sagittaria pygmaea, L. [10]; Rate 0.2500 kg/ha): 6.0 | herbicidal effect rating ORYSAT ([11]; Rate 0.0320 kg/ha): 2.0 | herbicidal effect rating ORYSAT ([11]; Rate 0.0620 kg/ha): 3.0 | herbicidal effect rating ORYSAT ([11]; Rate 0.1250 kg/ha): 4.0 | herbicidal effect rating ORYSAT ([11]; Rate 0.2500 kg/ha): 4.5 | herbicidal effect rating, ORYSAT (rice tolerance) ([12]; Rate 0.0320 kg/ha): 2.0 | herbicidal effect rating, ORYSAT (rice tolerance) ([12]; Rate 0.0620 kg/ha): 4.0 | herbicidal effect rating, ORYSAT (rice tolerance) ([12]; Rate 0.1250 kg/ha): 4.0 | herbicidal effect rating, ORYSAT (rice tolerance) ([12]; Rate 0.2500 kg/ha): 4.0
